Paper PMC7489219 (Molecular Brain, 2020)
Where a name gives a salt, the structure may show the parent alone.

test system: T1, primary mouse cortical neurons; test: cells; set-up: Protection from NMDA-induced (30 uM, 10 min) neuronal death; Hoechst nuclear morphology by automated microscopy; settings: Cortical neurone, 20 h, read-out: % inhibition, inhibition of NMDA-induced cell death (protection score), 30 min pre-treatment
T1 construct: primary cortical neurons, DIV 10
Experimental: On DIV 10, compounds were applied to the cells reaching an end concentration of 10 μM. Cells were incubated for 30 min at 37 °C, 5% CO2 before adding NMDA (30 μM). Cells were incubated for another 10 min in the incubator, then washed twice with defined minimal medium containing 10 μM of the respective compound and incubated for an additional 20 h before readout. Untreated (no NMDA) and NMDA-only stimulated wells were treated with 0.1% DMSO. […] After 15 min of incubation at room temperature, cells were washed twice with phosphate buffered saline. […] Dead neurons were identified by amorphous or shrunken nuclei using CellProfiler and CellProfiler Analyst software. For all cell death analyses the experimental unit (N) is defined as an independent experiment using an independent neuronal preparation. For each independent experiment, data from 3 replicate wells (i.e., from 36 images), representing an average of 3000 cells was analyzed per condition. The survival rate S was calculated by dividing the number of living cells by the total number of cells. The survival rate was then used to calculate the protection score according to Scompound−Svehicle/Suntreated−Svehicle×100=%protection , where ‘compound’ refers to compound + NMDA treatment, ‘vehicle’ refers to vehicle + NMDA treatment, and ‘untreated’ refers to DMSO control. […] As a proof of principle, we next used our assay to screen two commercially available drug libraries. In these screens, primary cortical cells were incubated with test compounds at 10 μM concentration for 30 min before addition of 30 μM NMDA. After 10 min NMDA treatment, cells were washed with fresh medium and kept in the presence of test compounds for 20 h until assessment of cell viability. […] This library covers structurally diverse drugs from several fields such as oncology, cardiology, immunology, and neurology/psychiatry.

| Structure (SMILES) | inhibition at 10 µM [%] |
| --- | --- |
| O=C(/C=C/C=C/c1ccc2c(c1)OCO2)N1CCCCC1 [Piperine (1-Piperoylpiperidine)] | -1.51 |
| CC[N+](CC)(CC)CCOc1cccc(OCC[N+](CC)(CC)CC)c1OCC[N+](CC)(CC)CC [Gallamine triethiodide (Flaxedil)] | -8.46 |
| O=C1C[C@@H](c2ccc(O)cc2)Oc2cc(O)cc(O)c21 [Naringenin] | -3.44 |
| CC(=O)SCC(Cc1ccccc1)C(=O)NCC(=O)OCc1ccccc1 (stereo not drawn) [Racecadotril (Acetorphan)] | -7.37 |
| O=C(CCCN1CCC(O)(c2ccc(Cl)cc2)CC1)c1ccc(F)cc1 [Haloperidol (Haldol)] | 65 |
| CN1CCCC(n2nc(Cc3ccc(Cl)cc3)c3ccccc3c2=O)CC1 (stereo not drawn) [Azelastine hydrochloride (Astelin)] | -2.32 |
| O=C(OC1C[C@H]2CC[C@@H](C1)[N+]21CCCC1)C(O)(c1ccccc1)c1ccccc1 (stereo partly drawn) [Trospium chloride (Sanctura)] | 7.49 |
| O=C(/C=C/c1ccc(O)cc1)c1ccc(O)cc1O [Isoliquiritigenin] | 5.56 |
| CC(=O)OCC(=O)[C@@]12N=C(C)O[C@@H]1C[C@H]1[C@@H]3CCC4=CC(=O)C=C[C@]4(C)[C@H]3[C@@H](O)C[C@@]12C [Deflazacort (Calcort)] | -1.74 |
| COc1nc(N)nc2c1ncn2[C@@H]1O[C@H](CO)[C@@H](O)[C@@H]1O [Nelarabine (Arranon)] | -9.06 |
| COc1ccc(C(C)=O)c(O)c1 [Paeonol (Peonol)] | -2.06 |
| C#C[C@]1(O)CC[C@H]2[C@@H]3CCc4cc(O)ccc4[C@H]3CC[C@@]21C [Ethinyl estradiol] | 57.3 |
| COC(=O)N[C@H](C(=O)N[C@@H](Cc1ccccc1)[C@@H](O)CN(Cc1ccc(-c2ccccn2)cc1)NC(=O)[C@@H](NC(=O)OC)C(C)(C)C)C(C)(C)C [Atazanavir sulfate] | 2.12 |
| NS(=O)(=O)c1cc2c(cc1Cl)N=CNS2(=O)=O [Chlorothiazide] | 31.3 |
| C[C@@](Cc1ccc(O)c(O)c1)(NN)C(=O)O [Carbidopa] | -2.32 |
| COc1ccc(-c2nc3cc(C4=NNC(=O)CC4C)ccc3[nH]2)cc1 (stereo not drawn) [Pimobendan (Vetmedin)] | -0.217 |
| CC[C@@]1([C@@H]2O[C@@H]([C@H]3O[C@@](O)(CO)[C@H](C)C[C@@H]3C)C[C@@H]2C)CC[C@H]([C@]2(C)CC[C@]3(C[C@H](O)[C@@H](C)[C@@H]([C@@H](C)[C@@H](OC)[C@H](C)C(=O)O)O3)O2)O1 [Monensin sodium salt (Coban)] | 3.22 |
| NC(=O)NO [Hydroxyurea (Cytodrox)] | -2.47 |
| CC[C@H](/C=C/[C@@H](C)[C@H]1CC[C@H]2[C@@H]3CC=C4C[C@@H](O)CC[C@]4(C)[C@H]3CC[C@]12C)C(C)C [Stigmasterol (Stigmasterin)] | 4.26 |
| C[C@]12CCC(=O)C=C1CC[C@@H]1[C@@H]2[C@@H](O)C[C@@]2(C)[C@H]1CC[C@]2(O)C(=O)CO [Hydrocortisone (Cortisol)] | 4.6 |
| C[C@@H]1CC[C@H]2[C@@H](C)C(O)O[C@@H]3O[C@@]4(C)CC[C@@H]1[C@]32OO4 (stereo partly drawn) [Dihydroartemisinin (DHA)] | -4.3 |
| COc1ccc([C@@H]2CC(=O)c3c(O)cc(O[C@@H]4O[C@H](CO)[C@@H](O)[C@H](O)[C@H]4O[C@@H]4O[C@@H](C)[C@H](O)[C@@H](O)[C@H]4O)cc3O2)cc1O [Neohesperidin] | 4.46 |
| C[C@@H]1O[C@@H](O[C@H]2[C@H](Oc3cc(O)c4c(c3)O[C@H](c3ccc(O)cc3)CC4=O)O[C@H](CO)[C@@H](O)[C@@H]2O)[C@H](O)[C@H](O)[C@H]1O [Naringin (Naringoside)] | -0.553 |

| Structure (SMILES) | inhibition at 10 µM [%] |
| --- | --- |
| CCCCCCCCCC(=O)N[C@@H](Cc1c[nH]c2ccccc12)C(=O)N[C@H](CC(N)=O)C(=O)N[C@@H](CC(=O)O)C(=O)N[C@@H]1C(=O)NCC(=O)N[C@@H](CCCN)C(=O)N[C@@H](CC(=O)O)C(=O)N[C@H](C)C(=O)N[C@@H](CC(=O)O)C(=O)NCC(=O)N[C@H](CO)C(=O)N[C@@H]([C@H](C)CC(=O)O)C(=O)N[C@@H](CC(=O)c2ccccc2N)C(=O)O[C@@H]1C [Daptomycin] | -3.03 |
| CC(C)(O)[C@H]1CC[C@@](C)([C@H]2[C@@H](O)C[C@@]3(C)[C@@H]4C[C@H](O[C@@H]5O[C@H](CO)[C@@H](O)[C@H](O)[C@H]5O)[C@H]5C(C)(C)[C@@H](O[C@@H]6OC[C@@H](O)[C@H](O)[C@H]6O)CC[C@@]56C[C@@]46CC[C@]23C)O1 [Astragaloside A] | 0.89 |
| CCOC(=O)[C@H](CCc1ccccc1)N[C@@H](C)C(=O)N1CCC[C@H]1C(=O)O [Enalapril maleate (Vasotec)] | 54.5 |
| N#CC1(c2ccc(NC(=O)c3cccnc3NCc3ccncc3)cc2)CCCC1 [Apatinib (YN968D1)] | -0.459 |
| Nc1nc2c(c(=O)[nH]1)N(C=O)C(CNc1ccc(C(=O)N[C@@H](CCC(=O)O)C(=O)O)cc1)CN2 (stereo partly drawn) [Leucovorin Calcium] | -10.9 |
| COc1ccc(C(CN(C)C)C2(O)CCCCC2)cc1 (stereo not drawn) [Venlafaxine] | 22.6 |
| Cc1coc2c1C(=O)C(=O)c1c-2ccc2c1CCCC2(C)C [Tanshinone IIA (Tanshinone B)] | 3.42 |
| Cc1cn(-c2cc(NC(=O)c3ccc(C)c(Nc4nccc(-c5cccnc5)n4)c3)cc(C(F)(F)F)c2)cn1 [Nilotinib (AMN-107)] | -7.37 |
| CNC[C@@H](O)c1ccc(O)c(O)c1 [L-Adrenaline (Epinephrine)] | 0.37 |
| O=C(O)CCCc1c[nH]c2ccccc12 [3-Indolebutyric acid (IBA)] | -1.77 |
| Cc1nnc(C(C)C)n1[C@@H]1C[C@H]2CC[C@@H](C1)N2CC[C@H](NC(=O)C1CCC(F)(F)CC1)c1ccccc1 [Maraviroc] | 2.4 |
| CC[C@@]1(O)C(=O)OCc2c1cc1n(c2=O)Cc2cc3c(CN(C)C)c(O)ccc3nc2-1 [Topotecan HCl] | -1.54 |
| Cc1cn([C@@H]2C[C@@H](O)[C@H](CO)O2)c(=O)[nH]c1=O [Telbivudine (Sebivo, Tyzeka)] | 23.8 |
| CC(C)(C#N)c1cc(Cn2cncn2)cc(C(C)(C)C#N)c1 [Anastrozole] | 3.89 |
| C=C[C@](C)(O)CC[C@@H]1[C@@]2(C)CCCC(C)(C)[C@@H]2CC[C@@]1(C)O [Sclareol] | 23.8 |
| CCN(CC)C(=S)SSC(=S)N(CC)CC [Disulfiram (Antabuse)] | -13.6 |
| Oc1ccc(OCc2ccccc2)cc1 [Monobenzone (Benoquin)] | 49.3 |
| CC1=C(/C=C/C(C)=C/C=C/C(C)=C\C(=O)O)C(C)(C)CCC1 [Isotretinoin] | -1.4 |
| CC(C)Cn1cnc2c(N)nc3ccccc3c21 [Imiquimod] | -8.7 |
| CO[C@H]1/C=C/O[C@@]2(C)Oc3c(C)c(O)c4c(O)c(c(/C=N/N5CCN(C6CCCC6)CC5)c(O)c4c3C2=O)NC(=O)/C(C)=C\C=C\[C@H](C)[C@H](O)[C@@H](C)[C@@H](O)[C@@H](C)[C@H](OC(C)=O)[C@@H]1C [Rifapentine (Priftin)] | 9.26 |
| C=C[C@H]1CN2CC[C@H]1C[C@H]2[C@H](O)c1ccnc2ccc(OC)cc12 [Quinine hydrochloride dihydrate] | -0.947 |
| Nc1cc(C(Cl)=C(Cl)Cl)c(S(N)(=O)=O)cc1S(N)(=O)=O [Clorsulon] | -1.66 |
